# The supplement of paper PMC6723410
# “And” between values parts separate entries of the source, which are not always exact repeats. Equal values may be shown once.
# Test system: GUMC-403
# Assay: viability at highest tested concentration (max response) relative to DMSO (% of DMSO control); higher = less cytotoxic
# Settings: library / dose series: MIPE library, 11-point 1:3 dilution; top concentration 46.1 µM; 48 h
# In short: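 In 1536-well plates, 700 GUMC-403 papilloma cells per well, taken from a patient and grown by conditional reprogramming, were seeded in 5 μL F + Y medium and incubated overnight at 37 °C. Compounds were pinned in at 23 nL in an 11-point 1:3 series, and left for 48 h before CellTiter-Glo luminescence was read on a ViewLux against vehicle (100%) and empty (0%) wells. Reported values are viability at the highest tested concentration relative to vehicle control.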
row,Structure (SMILES),viability
1,CN[C@H](CC(C)C)C(=O)N[C@H]1C(=O)N[C@@H](CC(N)=O)C(=O)N[C@H]2C(=O)N[C@H]3C(=O)N[C@H](C(=O)N[C@H](C(=O)O)c4cc(O)cc(O)c4-c4cc3ccc4O)[C@H](O)c3ccc(c(Cl)c3)Oc3cc2cc(c3O[C@@H]2O[C@H](CO)[C@@H](O)[C@H](O)[C@H]2O[C@H]2C[C@](C)(N)[C@H](O)[C@H](C)O2)Oc2ccc(cc2Cl)[C@H]1O,119
2,OC(CCN1CCCCC1)(C2CC\3CC2\C=C3)C4=CC=CC=C4 (stereo unspecified),136
3,CC1(CN2CCC(n3c(=O)[nH]c4ccccc43)CC2)OCc2ccccc2-n2cccc21 (stereo unspecified),82.8
4,O=C(N[C@H]1CN2CCC1CC2)c1ccc(Cl)cc1,121
5,Clc1ccc(CCC(Cn2ccnc2)Sc2c(Cl)cccc2Cl)cc1 (stereo unspecified),97
6,COc1ccc2c(c[n+](C)c3c4cc5c(cc4ccc23)OCO5)c1OC,38.7
7,CCC(C)SSc1ncc[nH]1 (stereo unspecified),101
8,O=C(Cc1ccc(-c2ccc(OCCN3CCOCC3)cc2)cn1)NCc1ccccc1,104
9,COc1ccc(Cn2ccc3ccc(C(=O)NO)cc32)cc1,108
10,C[C@H]1O[C@H](O[C@H]2[C@H](O)[C@@H](O)[C@H](O[C@@H]2CO)O[C@H]3[C@H](O)[C@@H](O)C(O)O[C@@H]3CO)[C@H](O)[C@@H](O)[C@@H]1N[C@H]4\C=C(CO)/[C@@H](O)[C@H](O)[C@H]4O (stereo partly specified),135
11,COc1ccc(C(=O)c2c(C)n(CCN3CCOCC3)c3cc(I)ccc23)cc1,143
12,C[S+](=O)([O-])Nc1ccc([N+](=O)[O-])cc1Oc1ccccc1,113
13,O=C(O)/C=C/c1ccc(O)c(O)c1,120
14,CCC[C@H]1C[C@H](C(=O)N[C@@H]([C@@H]2O[C@@H](SC)[C@@H](O)[C@@H](O)[C@H]2O)[C@H](C)Cl)N(C)C1,118
15,NC(CO)(CO)CCc1ccc(Sc2cccc(OCc3ccccc3)c2)cc1Cl,118
16,COc1cc2ncnc(-n3nc(-c4ccccn4)nc3N)c2cc1OC,124
17,NNC(=O)c1ccncc1,104
18,C/C=C/C/C=C/CCC(=O)[C@H]1O[C@H]1C(N)=O,93.5
19,O=C1Nc2ccc(I)cc2/C1=C/c1cc(Br)c(O)c(Br)c1,146
20,O=C(O)c1cccnc1,103
21,O=P(O)(O)C(O)(Cc1cccnc1)P(=O)(O)[O][Na] (stereo unspecified),123

row,Structure (SMILES),viability
1,CN(C)c1nc(Cc2ccc(NC(=O)c3ccc(C(F)(F)F)cc3)cc2)nc(N(C)C)c1CC(=O)O,127
2,CCCn1c(=O)c2[nH]c(C34CC5CC3C[C@@H](C5)C4)nc2n(CCC)c1=O,122
3,COC1=CC2=C(C=C1CC3=C(F)C(=CC=C3)Cl)C(=O)\C(=C/N2[C@H](CO)C(C)C)C(O)=O,124
4,CCCCN(CCCC)CC(O)c1cc(Cl)cc2c1-c1ccc(Cl)cc1/C2=C/c1ccc(Cl)cc1 (stereo unspecified),104
5,COc1cc(NCc2ccc3nc(N)nc(N)c3c2C)cc(OC)c1OC,99.5
6,C#CCN(C)[C@H](C)Cc1ccccc1,92.4
7,CC(C)(C)NCC(O)c1ccc(O)c(CO)c1 (stereo unspecified),109
8,CC(C)CC(N(C)C)C1(c2ccc(Cl)cc2)CCC1 (stereo unspecified),122
9,OCCN1CCN(CCCN2c3ccccc3Sc3ccc(C(F)(F)F)cc32)CC1,97.2
10,CC(C)[N+]1(C)C2CCC1CC(OC(=O)C(CO)c1ccccc1)C2.O.[Br-] (stereo unspecified),109
11,Cc1c(C(=O)c2cccc3ccccc23)c2cccc3c2n1[C@H](CN1CCOCC1)CO3,76.9
12,C[C@]12CC[C@H]3[C@@H](CCC4=CC(=O)CC[C@@H]43)[C@@H]1CC[C@@H]2OC(=O)CCc1ccccc1,118
13,NC(=O)c1cccnc1,136
14,O=C([O-])C(O)Cc1ccc(O)c(O)c1 (stereo unspecified),106
15,C[C@H](CCC(=O)O)[C@H]1CC[C@H]2[C@@H]3[C@@H](O)C[C@@H]4C[C@H](O)CC[C@]4(C)[C@H]3CC[C@]12C,84.8
16,Cc1ccccc1C(=O)Nc1ccc(C(=O)N2CCCC(O)c3cc(Cl)ccc32)c(C)c1 (stereo unspecified),108
17,CC1(N2CCC(n3c([C@@H]4CCCNC4)nc4ccccc43)CC2)CCCCCCC1,115
18,N#Cc1ccc(COC[C@H]2O[C@@H](n3c(NCc4ccc(Cl)c(Cl)c4)nc4c(N)ncnc43)[C@H](O)[C@@H]2O)cc1,89
19,NC(=O)c1ccc(N(C(N)=O)c2c(F)cccc2F)nc1-c1ccc(F)cc1F,109
20,COc1cc2nc(N3CCN(C(=O)C4CCCO4)CC3)nc(N)c2cc1OC (stereo unspecified),126
21,COc1ccccc1OCCNCC(O)COc1cccc2[nH]c3ccccc3c12 (stereo unspecified),102

row,Structure (SMILES),viability
1,CN1CCCN=C1/C=C/c1cccs1.O=C(O)c1cc2ccccc2c(Cc2c(O)c(C(=O)O)cc3ccccc23)c1O,79.8
2,CC(=O)C\1=C(/C)C2=CN=C(NC3=CC=C(C=N3)N4CCNCC4)N=C2N(C5CCCC5)C1=O,93
3,CN(C(Cc1ccc(O[S+](=O)([O-])c2cccc3cnccc23)cc1)C(=O)N1CCN(c2ccccc2)CC1)[S+](=O)([O-])c1cccc2cnccc12 (stereo unspecified),83.2
4,CN(C/C=C/C#CC(C)(C)C)Cc1cccc2ccccc12,123
5,Cc1ccccc1C(=O)c1ccc(Nc2ccc(Br)cc2N)cc1Cl,103
6,c1cc(CN2CCCNCCNCCCNCC2)ccc1CN1CCCNCCNCCCNCC1,144
7,COC[C@@H](NC(C)=O)C(=O)NCc1ccccc1,133
8,Cc1ccc(C(C)(O)c2nc3ccccc3s2)c(C)c1 (stereo unspecified),115
9,CCC(=O)O[C@@]1([C@@H](C)C[C@H]2[C@@H]3CCC/4=C/C(=O)/C=C\[C@]4(C)[C@@]3(F)[C@@H](O)C[C@]12C)C(=O)CCl,148
10,COc1ccc([C@@H]2CC(=O)c3c(O)cc(O[C@@H]4O[C@H](CO[C@@H]5O[C@@H](C)[C@H](O)[C@@H](O)[C@H]5O)[C@@H](O)[C@H](O)[C@H]4O)cc3O2)cc1O,94.4 and 102
11,CN1\C(=C(\O)C2=C(C=CC=C2)[S+]1([O-])=O)C(=O)NC3=CC=CC=N3,99
12,O=C(C=CC#Cc1cccc(N[S+](=O)([O-])c2ccccc2)c1)NO,108
13,CC(C)(OCc1nn(Cc2ccccc2)c2ccccc12)C(=O)O,113
14,Cc1ccc(NC(=O)c2cccc(N(C)C)c2)cc1NC(=O)c1ccc(O)cc1,96.6
15,CCOC(=O)[C@H]1O[C@@H]1C(=O)N[C@@H](CC(C)C)C(=O)NCCC(C)C,109
16,CCCNC(=O)Nc1ccc(Oc2ncnc3cc(OC)c(OC)cc23)cc1Cl,92.2
17,CN(C)CC/C=C1/c2ccccc2COc2ccc(CC(=O)O)cc21,100
18,Nc1ccc([S+](=O)([O-])Nc2ccnn2-c2ccccc2)cc1,133
19,Cc1cnc(-c2cc(N3CCN(C(=O)CC[S+](C)(=O)[O-])CC3)ncc2Cl)c(C)c1,72.3
20,CCOc1cc(N2CCC(O)CC2)ccc1Nc1ncc2c(n1)N(C)c1ccccc1C(=O)N2C,89.8
21,O=C1c2ccccc2-c2n[nH]c3cccc1c23,99.2

row,Structure (SMILES),viability
1,CC(=O)OCC(CCn1cnc2cnc(N)nc21)COC(C)=O,116
2,CC(=O)Oc1cc2c(s1)CCN(C(C(=O)C1CC1)c1ccccc1F)C2.Cl (stereo unspecified),114
3,N=C(N)Nc1ccc(C(=O)Oc2ccc3cc(C(=N)N)ccc3c2)cc1,86.1
4,Cc1cc(SCc2sc(-c3ccc(C(F)(F)F)cc3)nc2C)ccc1OCC(=O)O,133
5,Cc1cc2c(cc1C1(c3ccc(C(=O)O)cn3)CC1)C(C)(C)CCC2(C)C,129
6,CC1COC2(CCN(CC2)C/3=N/C(=O)C4=CC(=CC(=C4S3)[N+]([O-])=O)C(F)(F)F)O1 (stereo unspecified),122
7,Cc1ccc([S+](=O)([O-])NC(=O)NN2CC3CCCC3C2)cc1 (stereo unspecified),109
8,Cc1nc2ccc(CN(C)c3ccc(C(=O)N[C@@H](CCC(=O)O)C(=O)O)s3)cc2c(=O)[nH]1,116
9,O=C(O)CCCCCC(=O)NN=C1CCCC1,108
10,COCCCN1CCC(NC(=O)c2cc(Cl)c(N)c3c2OCC3)CC1,76.9
11,CCCCCN(C)CCC(O)(P(=O)([O-])O)P(=O)(O)O,106
12,CN1c2ccccc2C(=O)N2CCc3c([nH]c4ccccc34)C21 (stereo unspecified),102
13,O=C(O)CC/C=C\CC[C@@H]1[C@@H](N2CCCCC2)[C@@H](O)C[C@@H]1OCc1ccc(-c2ccccc2)cc1,112
14,CCC[C@H](NC(=O)[C@@H]1[C@H]2CCC[C@H]2CN1C(=O)[C@@H](NC(=O)[C@@H](NC(=O)c1cnccn1)C1CCCCC1)C(C)(C)C)C(=O)C(=O)NC1CC1,117
15,CC(=O)Oc1ccccc1C(=O)O,118
16,CC(C)(C)C1=NC2=C([NH]1)C3=CC=C(F)C=C3C4=C2\C=C/NC4=O,133
17,OC1=CC(=C(C=C1)\C2=C(O)\C(=O)C3=C(O2)C=C(O)C=C3O)O,93.9
18,CN(C)CC[C@H](c1ccc(Cl)cc1)c1ccccn1,112
19,CCN(CCO)CCCOc1ccc2c(Nc3cc(CC(=O)Nc4cccc(F)c4)[nH]n3)ncnc2c1,105
20,O=[S+]([O-])(CC1CS1)c1ccc(Oc2ccccc2)cc1 (stereo unspecified),122
21,COc1cc(OC)c(NC(=O)Nc2cc(C)on2)cc1Cl,131

# Same assay, conditions: library / dose series: MIPE library, 11-point 1:3 dilution; top concentration 92.2 µM; 48 h
row,Structure (SMILES),viability
1,C[C@@H](NC1=CC=CC=C1C(O)=O)C/2=C/C(=C\N3C(=O)/C=C(\N=C23)N4CCOCC4)C,34.9
2,Cc1cc(Nc2cc(N3CCN(C)CC3)nc(/C=C/c3ccccc3)n2)n[nH]1,54.1
